The text below walks through data of ChEMBL document CHEMBL1126475, “Synthesis of a potent and selective non-peptide CCK-B/gastrin receptor antagonist tritiated ligand” (Bioorg Med Chem Lett, 1993).

The target in assay [1] is T1, Gastrin/cholecystokinin type B receptor (Mus musculus, UniProt P56481).
T1 sequence (P56481 whole entry): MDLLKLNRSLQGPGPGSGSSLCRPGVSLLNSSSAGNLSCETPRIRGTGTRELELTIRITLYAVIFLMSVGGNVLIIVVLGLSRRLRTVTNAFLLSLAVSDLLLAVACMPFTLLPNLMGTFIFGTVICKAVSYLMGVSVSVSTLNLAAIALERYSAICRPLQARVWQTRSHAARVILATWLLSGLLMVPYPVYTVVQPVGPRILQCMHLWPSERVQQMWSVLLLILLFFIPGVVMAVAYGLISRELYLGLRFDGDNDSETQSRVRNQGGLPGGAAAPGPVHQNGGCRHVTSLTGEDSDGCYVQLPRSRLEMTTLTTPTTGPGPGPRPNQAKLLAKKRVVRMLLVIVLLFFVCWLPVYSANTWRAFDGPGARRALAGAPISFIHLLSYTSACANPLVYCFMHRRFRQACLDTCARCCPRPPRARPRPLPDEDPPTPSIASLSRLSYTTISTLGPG
The assay can be described thus: The compound was evaluated for the inhibition of binding of [3H]-PD 140376 to Cholecystokinin type B receptor in mouse cortex.

The target in assay [2] is T2, Cholecystokinin receptor type A (Rattus norvegicus, UniProt P30551).
T2 sequence (P30551 whole entry): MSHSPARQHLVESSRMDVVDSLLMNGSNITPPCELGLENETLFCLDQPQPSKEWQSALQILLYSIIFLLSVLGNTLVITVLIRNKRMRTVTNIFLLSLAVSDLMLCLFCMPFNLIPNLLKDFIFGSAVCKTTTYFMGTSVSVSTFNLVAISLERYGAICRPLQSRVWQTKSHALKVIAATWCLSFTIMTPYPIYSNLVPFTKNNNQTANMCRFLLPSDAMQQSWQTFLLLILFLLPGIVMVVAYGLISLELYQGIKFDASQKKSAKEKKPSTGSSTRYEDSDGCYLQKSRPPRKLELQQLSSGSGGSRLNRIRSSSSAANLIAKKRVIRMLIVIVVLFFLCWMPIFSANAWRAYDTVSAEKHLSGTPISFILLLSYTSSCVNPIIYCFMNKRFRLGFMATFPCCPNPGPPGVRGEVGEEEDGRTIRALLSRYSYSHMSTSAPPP
The assay can be described thus: The compound was evaluated for the inhibition of binding of [125I]Bolton-Hunter CCK-8 to Cholecystokinin type A receptor in the rat pancreas.

Assay [3] addresses T3, Gastrin/cholecystokinin type B receptor (Rattus norvegicus) (UniProt P30553).
T3 sequence (whole entry): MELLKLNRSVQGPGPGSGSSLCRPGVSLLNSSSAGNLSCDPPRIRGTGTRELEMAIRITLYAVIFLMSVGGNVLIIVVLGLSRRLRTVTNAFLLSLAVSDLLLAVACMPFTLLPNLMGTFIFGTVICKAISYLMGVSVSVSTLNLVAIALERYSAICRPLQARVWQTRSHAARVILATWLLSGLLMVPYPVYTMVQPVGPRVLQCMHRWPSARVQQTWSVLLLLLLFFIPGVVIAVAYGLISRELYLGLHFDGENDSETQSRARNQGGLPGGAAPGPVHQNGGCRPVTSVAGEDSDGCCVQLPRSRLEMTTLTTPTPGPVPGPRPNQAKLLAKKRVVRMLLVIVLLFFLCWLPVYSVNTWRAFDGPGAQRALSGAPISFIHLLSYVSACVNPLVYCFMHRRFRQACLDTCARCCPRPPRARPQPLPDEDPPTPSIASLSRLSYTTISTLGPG
The assay can be described thus: Specific activity for Cholecystokinin type B receptor in 10e5 AR42J cells was determined for the compound. It is filed as cell-based. The conditions noted are these: AR-42J.

Assay [4] is described as follows: Tested for dissociation constant of the compound; Value ranges from 0.1-0.3. It is filed as ADME.
The species named for another assay is Rattus norvegicus. Kind of assay: Antagonistic activity against excitations of rat ventromedial hyphalamic neurones evoked in CCK-B. It is filed as functional.

Consider `C[C@](Cc1c[nH]c2ccccc12)(NC(=O)OC1C2CC3CC(C2)CC1C3)C(=O)N[C@@H](CC(=O)O)Cc1ccc(N)cc1` (stereo not given in full), for which the results for the Ki in assay [1] and in assay [2] were 0.2 nM and 350 nM, respectively. The compound also came in with a Bmax (fmol/10^5 cells) in assay [3] of 31. The compound also showed a Kd in assay [4] of 0.1 nM.
Take `CSCC[C@H](NC(=O)[C@H](Cc1c[nH]c2ccccc12)NC(=O)CCNC(=O)OC(C)(C)C)C(=O)N[C@@H](CC(=O)O)C(=O)N[C@@H](Cc1ccccc1)C(N)=O` [PENTAGASTRIN]: the Ke in the assay listed under Rattus norvegicus turned out to be 1.4 nM.
